Our source for the T/C values is PubChem BioAssay AID248 (DTP/NCI, 2004).

Where “and” joins values, the source holds several entries; their conditions need not be identical. Equal entries are not always repeated. Inconclusive results and toxic doses are left out.

The experiment deals with L1210 leukemia ip in BDF1 mice, survival T/C. The experiment can be described thus: NCI In Vivo Anticancer Drug Screen. Data for tumor model L1210 Leukemia (intraperitoneal) in B6D2F1 (BDF1) mice. The conditions noted are these: endpoint: mean survival time, higher = longer survival. The method, boiled down:
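Transplanted-tumor mice were given test agent; controls received vehicle only. Survival readings from the two groups were divided (treated over control).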

Setting [1] is: dose: 100.0 mg/kg/injection, schedule: Q01DX001 (ip), vehicle: carboxymethylcellulose (CMC).
Where [2] appears, read: dose: 200.0 mg/kg/injection, schedule: Q01DX001 (ip), vehicle: carboxymethylcellulose (CMC).
Where [3] appears, read: dose: 400.0 mg/kg/injection, schedule: Q01DX001 (ip), vehicle: carboxymethylcellulose (CMC).
[4] abbreviates: dose: 100.0 mg/kg/injection, schedule: Q01DX001 (ip), vehicle: saline.
[5] abbreviates: dose: 100.0 mg/kg/injection, schedule: Q04DX003 (ip), vehicle: saline.
[6] abbreviates: dose: 200.0 mg/kg/injection, schedule: Q01DX001 (ip), vehicle: saline.
Setting [7] is: dose: 200.0 mg/kg/injection, schedule: Q04DX003 (ip), vehicle: saline.
Where [8] appears, read: dose: 100.0 mg/kg/injection, schedule: Q04DX003 (ip), vehicle: Klucel (hydroxypropylcellulose) (HPC).
Where [9] appears, read: dose: 200.0 mg/kg/injection, schedule: Q04DX003 (ip), vehicle: Klucel (hydroxypropylcellulose) (HPC).
Where [10] appears, read: dose: 400.0 mg/kg/injection, schedule: Q04DX003 (ip), vehicle: Klucel (hydroxypropylcellulose) (HPC).
The mark [11] stands for this setting: dose: 100.0 mg/kg/injection, schedule: Q01DX009 (ip), vehicle: Klucel (hydroxypropylcellulose) (HPC).
[12] abbreviates: dose: 200.0 mg/kg/injection, schedule: Q01DX009 (ip), vehicle: Klucel (hydroxypropylcellulose) (HPC).
[13] abbreviates: dose: 100.0 mg/kg/injection, schedule: Q04DX002 (ip), vehicle: Klucel (hydroxypropylcellulose) (HPC).
[14] abbreviates: dose: 200.0 mg/kg/injection, schedule: Q04DX002 (ip), vehicle: Klucel (hydroxypropylcellulose) (HPC).
Where [15] appears, read: dose: 400.0 mg/kg/injection, schedule: Q04DX002 (ip), vehicle: Klucel (hydroxypropylcellulose) (HPC).
Where [16] appears, read: dose: 100.0 mg/kg/injection, schedule: Q01DX001 (ip), vehicle: saline with Tween-80.
[17] abbreviates: dose: 200.0 mg/kg/injection, schedule: Q01DX001 (ip), vehicle: saline with Tween-80.
Setting [18] is: dose: 400.0 mg/kg/injection, schedule: Q01DX001 (ip), vehicle: saline with Tween-80.
[19] abbreviates: dose: 100.0 mg/kg/injection, schedule: Q01DX009 (ip), vehicle: saline.
[20] abbreviates: dose: 200.0 mg/kg/injection, schedule: Q01DX009 (ip), vehicle: saline.

For `O=NN(CCCl)C(=O)Nc1ccc(S(=O)(=O)c2ccc(NC(=O)N(CCCl)N=O)cc2)cc1`, the T/C runs as follows: (dose: 100.0 mg/kg/injection, schedule: Q01DX009 (ip), vehicle: carboxymethylcellulose (CMC)) 184 % of control; (dose: 118.0 mg/kg/injection, schedule: Q01DX009 (ip), vehicle: carboxymethylcellulose (CMC)) 152 % of control; (dose: 177.0 mg/kg/injection, schedule: Q01DX001 (ip), vehicle: carboxymethylcellulose (CMC)) 156 % of control; (dose: 200.0 mg/kg/injection, schedule: Q01DX009 (ip), vehicle: carboxymethylcellulose (CMC)) 192 % of control; (dose: 266.0 mg/kg/injection, schedule: Q01DX001 (ip), vehicle: carboxymethylcellulose (CMC)) 159 % of control; (dose: 266.0 mg/kg/injection, schedule: Q01DX009 (ip), vehicle: carboxymethylcellulose (CMC)) 170 % of control. Besides, the T/C runs as follows: (dose: 400.0 mg/kg/injection, schedule: Q01DX009 (ip), vehicle: carboxymethylcellulose (CMC)) 173 % of control and 186 % of control; (dose: 600.0 mg/kg/injection, schedule: Q01DX001 (ip), vehicle: carboxymethylcellulose (CMC)) 161 % of control and 172 % of control.
Regarding `COc1cc([N+](=O)[O-])c2nc(C(Br)(Br)Br)ccc2c1[N+](=O)[O-]`, the T/C was 105 % of control (dose: 50.0 mg/kg/injection, schedule: Q01DX001 (ip), vehicle: carboxymethylcellulose (CMC)); 111 % of control under setting [1]; 96 % of control under setting [2]; 103 % of control under setting [3].
Turning to `CSC(N)=Nc1c(C)cccc1C`, the T/C reads like this: (dose: 50.0 mg/kg/injection, schedule: Q04DX003 (ip), vehicle: saline) 102 % of control; under setting [4], 98 % of control; under setting [5], 106 % of control; under setting [6], 100 % of control; under setting [7], 101 % of control.
As for `CC1(C)Oc2nc(N)nc(N)c2C1c1ccc(Cl)cc1` (stereo not drawn), the T/C under setting [8] is 106 % of control, the T/C under setting [9] is 97 % of control and the T/C under setting [10] is 103 % of control.
As to `Cc1cc(N=Nc2ccc(N(C)C)cc2)cc(C)[n+]1[O-]`, the T/C by setting is: under setting [11], 104 % of control; under setting [8], 100 % of control; under setting [12], 98 % of control; under setting [9], 95 % of control; under setting [10], 88 % of control.
Take `CN(C)CCO/C(CN(C)C)=C(\C#N)c1ccccc1`: the T/C was 92 % of control (dose: 15.0 mg/kg/injection, schedule: Q01DX001 (ip), vehicle: carboxymethylcellulose (CMC)) and 95 % of control (dose: 30.0 mg/kg/injection, schedule: Q01DX001 (ip), vehicle: carboxymethylcellulose (CMC)).
For `CCCCCCN1C(=O)c2ccccc2S1(=O)=O`, the T/C (dose: 222.0 mg/kg/injection, schedule: Q01DX Z (ip), vehicle: methylcellulose (MC)) was 101 % of control; the T/C (dose: 333.0 mg/kg/injection, schedule: Q01DX Z (ip), vehicle: methylcellulose (MC)) is 113 % of control; the T/C (dose: 500.0 mg/kg/injection, schedule: Q01DX Z (ip), vehicle: methylcellulose (MC)) was 100 % of control.
With `O=[N+]([O-])c1c[nH]c2ncnc(SCc3ccccc3)c12`, the T/C is, setting by setting: under setting [1], 87 % of control; under setting [2], 93 % of control; under setting [3], 91 % of control.
On to `CCCCCC/C=N/Nc1ccc([N+](=O)[O-])cc1[N+](=O)[O-]`, for which the T/C is 101 % of control (dose: 50.0 mg/kg/injection, schedule: Q01DX009 (ip), vehicle: saline with Tween-80); 102 % of control (dose: 100.0 mg/kg/injection, schedule: Q01DX009 (ip), vehicle: saline with Tween-80); 91 % of control (dose: 200.0 mg/kg/injection, schedule: Q01DX009 (ip), vehicle: saline with Tween-80).
On to `CCCCCCCCCCCCCc1nc(N)nc(NCCCC)n1`, for which the T/C reads like this: under setting [13], 92 % of control; under setting [14], 89 % of control; under setting [15], 100 % of control.
For `COc1ccc(C2(C#N)CCCCC2)cc1`, the T/C is 109 % of control under setting [11]; 97 % of control under setting [8]; 98 % of control under setting [12]; 100 % of control under setting [9]; 94 % of control (dose: 400.0 mg/kg/injection, schedule: Q01DX009 (ip), vehicle: Klucel (hydroxypropylcellulose) (HPC)); 101 % of control under setting [10].
For `CC(C)=CCC/C(C)=C/Cn1c(=O)cc[nH]c1=O`, the T/C is, setting by setting: (dose: 100.0 mg/kg/injection, schedule: Q04DX003 (ip), vehicle: other) 96 % of control; (dose: 200.0 mg/kg/injection, schedule: Q04DX003 (ip), vehicle: other) 86 % of control; (dose: 400.0 mg/kg/injection, schedule: Q04DX003 (ip), vehicle: other) 86 % of control.
`Clc1cccc2c1Cc1c(Cl)cccc1C2`: the T/C is 97 % of control under setting [16], 94 % of control under setting [17] and 97 % of control under setting [18].
As for `Nc1nc2c(ncn2-c2ccc(OCCCOc3ccc(S(=O)(=O)F)cc3)cc2)c(=O)[nH]1`, the T/C was 94 % of control (dose: 100.0 mg/kg/injection, schedule: Q01DX001 (ip), vehicle: Klucel (hydroxypropylcellulose) (HPC)) and 91 % of control (dose: 200.0 mg/kg/injection, schedule: Q01DX001 (ip), vehicle: Klucel (hydroxypropylcellulose) (HPC)).
With `Cc1ccc(C)c(NC(=O)N2CCN(C)CC2)c1`, the T/C runs as follows: under setting [19], 97 % of control; under setting [20], 100 % of control.
For the compound `Cc1ncc(C(=O)O)[nH]1`, the T/C runs as follows: under setting [4], 91 % of control; under setting [6], 89 % of control; (dose: 400.0 mg/kg/injection, schedule: Q01DX001 (ip), vehicle: saline) 91 % of control.
With `CC(=O)OCC1OCOC2C1OC1OCOC12` (stereo not drawn), the T/C was 104 % of control (dose: 100.0 mg/kg/injection, schedule: Q04DX002 (ip), vehicle: saline with Tween-80); 104 % of control (dose: 200.0 mg/kg/injection, schedule: Q04DX002 (ip), vehicle: saline with Tween-80); 118 % of control (dose: 400.0 mg/kg/injection, schedule: Q04DX002 (ip), vehicle: saline with Tween-80).
Take `O=C1N(c2ccccc2)C(c2ccccc2)SC1(Cc1ccc(Br)cc1)c1ccccc1` (stereo not drawn): the T/C runs as follows: under setting [16], 100 % of control; under setting [17], 98 % of control; under setting [18], 94 % of control.
Turning to `O=c1[n-]cc(F)c(=O)[nH]1.O=c1[n-]cc(F)c(=O)[nH]1.[NH2-].[NH2-].[Pt+4]`, the T/C (dose: 6.25 mg/kg/injection, schedule: Q03HX024 (ip), vehicle: saline with Tween-80) is 97 % of control; the T/C (dose: 12.5 mg/kg/injection, schedule: Q03HX024 (ip), vehicle: saline with Tween-80) was 101 % of control; the T/C (dose: 25.0 mg/kg/injection, schedule: Q03HX024 (ip), vehicle: saline with Tween-80) was 99 % of control; the T/C (dose: 50.0 mg/kg/injection, schedule: Q03HX024 (ip), vehicle: saline with Tween-80) is 118 % of control; the T/C under setting [19] is 115 % of control and 105 % of control; the T/C under setting [5] was 108 % of control and 92 % of control and 97 % of control. The T/C runs as follows: under setting [20], 124 % of control and 114 % of control; under setting [7], 93 % of control and 113 % of control and 97 % of control; (dose: 400.0 mg/kg/injection, schedule: Q01DX009 (ip), vehicle: saline) 109 % of control; (dose: 400.0 mg/kg/injection, schedule: Q04DX003 (ip), vehicle: saline) 120 % of control and 124 % of control and 101 % of control.
`OC(COc1ccccc1)CN1CCN(c2ccccc2)CC1` (stereo not drawn): the T/C was 98 % of control under setting [13]; 102 % of control under setting [14]; 95 % of control and 102 % of control under setting [15].
On to `CCN(C)CCC(CNC(=O)CN(CC)CC)(c1cccc2ccccc12)C(C)C` (stereo not drawn), for which the T/C was 94 % of control (dose: 50.0 mg/kg/injection, schedule: Q01DX009 (ip), vehicle: saline); 91 % of control under setting [19]; 103 % of control under setting [5]; 101 % of control under setting [20]; 103 % of control under setting [7].
On to `O=S(=O)(OCCCl)c1ccc(Cl)c(S(=O)(=O)OCCCl)c1`, for which the T/C (dose: 100.0 mg/kg/injection, schedule: Q04DX003 (ip), vehicle: saline with Tween-80) was 97 % of control.
